# Assays:
# Format in all cases: in vivo
# Kochia (Kochia scoparia) [1] = assay: Test A preemergence; conditions: for Kochia plant response rating: preemergence
# Outline: (§1)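 Each rating is a visual injury score from 0 to 100 given about 10 d after treatment, judged against untreated controls kept alongside in the greenhouse. In loam soil–sand blend, seeds got a preemergence directed soil spray, while postemergence plants were 2 to 10 cm tall at spraying.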
# [2] = tested on: barnyardgrass (Echinochloa crus-galli); assay: Test A preemergence; conditions: for Barnyardgrass plant response rating: preemergence
# Outline: as §1
# [3] = tested on: giant foxtail (Setaria faberii); assay: Test A preemergence; conditions: for Foxtail, Giant plant response rating: preemergence
# Outline: as §1
# [4] = tested on: pigweed (Amaranthus retroflexus); assay: Test A preemergence; conditions: for Pigweed plant response rating: preemergence
# [5] = tested on: ragweed (common ragweed, Ambrosia elatior); assay: Test A preemergence; conditions: for Ragweed plant response rating: preemergence
# Outline: as §1
# [6] = tested on: ryegrass, Italian (Italian ryegrass, Lolium multiflorum); assay: Test A preemergence; conditions: for Ryegrass, Italian plant response rating: preemergence
# Outline: as §1
# [7] = tested on: Galium (catchweed bedstraw, Galium aparine); assay: Test A postemergence
# Outline: as §1
# Kochia (Kochia scoparia) [8] = assay: Test A postemergence
# Outline: as §1
# [9] = tested on: barnyardgrass (Echinochloa crus-galli); assay: Test A postemergence
# Outline: as §1
# [10] = tested on: blackgrass (Alopecurus myosuroides); assay: Test A postemergence
# Outline: as §1
# corn (Zea mays) = assay: Test A postemergence
# Outline: as §1
# [11] = tested on: giant foxtail (Setaria faberii); assay: Test A postemergence
# Outline: as §1
# [12] = tested on: pigweed (Amaranthus retroflexus); assay: Test A postemergence
# Outline: as §1
# [13] = tested on: ragweed (common ragweed, Ambrosia elatior); assay: Test A postemergence
# Outline: as §1
# [14] = tested on: ryegrass, Italian (Italian ryegrass, Lolium multiflorum); assay: Test A postemergence
# Outline: as §1
# [15] = tested on: wheat (Triticum aestivum); assay: Test A postemergence
# Outline: as §1
# [16] = tested on: barnyardgrass (Echinochloa crus-galli); assay: Test B flooded paddy test; conditions: Flood, 250 g ai/ha, 0 to 100 scale where 0 is no effect and 100 is complete control
# Outline: (§2)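 Rating scale 0–100 (visual, vs untreated controls) after a 13–15 d greenhouse period; application to the flood layer, 3 cm above soil and maintained; plants at 2-leaf stage when treated.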
# [17] = tested on: ducksalad (Heteranthera limosa); assay: Test B flooded paddy test; conditions: Flood, 250 g ai/ha, 0 to 100 scale where 0 is no effect and 100 is complete control
# Outline: as §2
# rice (Oryra sativa) = assay: Test B flooded paddy test; conditions: Flood, 250 g ai/ha, 0 to 100 scale where 0 is no effect and 100 is complete control
# Outline: as §2
# [18] = tested on: sedge, umbrella (small-flower umbrella sedge, Cyperus difformis); assay: Test B flooded paddy test; conditions: Flood, 250 g ai/ha, 0 to 100 scale where 0 is no effect and 100 is complete control
# Outline: as §2
# [19] = 125 g ai/ha, Preemergence, visual injury after approximately 10 d, 0 to 100 scale where 0 is no effect and 100 is complete control
# [20] = Preemergence, 500 g ai/ha, visual injury approx. 10 d
# [21] = 125 g ai/ha, postemergence, visual rating after approx. 10 d, 0 to 100 scale (0 no effect, 100 complete control)
# [22] = Postemergence, 500 g ai/ha, 0 to 100 scale where 0 is no effect and 100 is complete control
# [23] = 125 g ai/ha, visual injury rating, 0 to 100 scale where 0 is no effect and 100 is complete control, approximately 10 d
# [24] = 500 g ai/ha, 0 to 100 scale where 0 is no effect and 100 is complete control
# [25] = 125 g ai/ha, postemergence, visual injury vs untreated controls after approx. 10 d, 0 = no effect, 100 = complete control
# [26] = 500 g ai/ha, postemergence, 0 to 100 scale, 0 is no effect, 100 is complete control
smiles,measurement,setting,value
O=C1NCC(c2ccsc2Cl)C1C(=O)Nc1cccc(F)c1F (centres unmarked) [Compound 600],"Plant response rating, Kochia",Kochia (Kochia scoparia) [1]; [19],0
same,"Kochia plant response rating (0 to 100 scale, 0 is no effect, 100 is complete control)",Kochia (Kochia scoparia) [1]; [20],20
same,"Plant response rating, Barnyardgrass",[2]; [19],30
same,"Barnyardgrass plant response rating (0 to 100 scale, 0 is no effect, 100 is complete control)",[2]; [20],90
same,"Plant response rating, Foxtail, Giant",[3]; [19],30
same,"Foxtail, Giant plant response rating (0 to 100 scale, 0 is no effect, 100 is complete control)",[3]; [20],90
same,"Plant response rating, Pigweed",[4]; [19],0
same,"Pigweed plant response rating (0 to 100 scale, 0 is no effect, 100 is complete control)",[4]; [20],0
same,"Plant response rating, Ragweed",[5]; [19],0
same,"Ragweed plant response rating (0 to 100 scale, 0 is no effect, 100 is complete control)",[5]; [20],0
same,"Plant response rating, Ryegrass, Italian",[6]; [19],0
same,"Ryegrass, Italian plant response rating (0 to 100 scale, 0 is no effect, 100 is complete control)",[6]; [20],0
same,"Plant response rating, Galium",[7]; [21],0
same,"Plant response rating, Galium",[7]; [22],0
same,"Plant response rating, Kochia",Kochia (Kochia scoparia) [8]; [21],0
same,"Plant response rating, Kochia",Kochia (Kochia scoparia) [8]; [22],0
same,"Plant response rating, Barnyardgrass",[9]; [21],0
same,"Plant response rating, Barnyardgrass",[9]; [22],90
same,"Plant response rating, Blackgrass",[10]; [21],0
same,"Plant response rating, Blackgrass",[10]; [22],0
same,"Plant response rating, Corn",corn (Zea mays); [21],0
same,"Plant response rating, Corn",corn (Zea mays); [22],0
same,"Plant response rating, Foxtail, Giant",[11]; [21],0
same,"Plant response rating, Foxtail, Giant",[11]; [22],30
same,"Plant response rating, Pigweed",[12]; [21],0
same,"Plant response rating, Pigweed",[12]; [22],0
same,"Plant response rating, Ragweed",[13]; [21],0
same,"Plant response rating, Ragweed",[13]; [22],0
same,"Plant response rating, Ryegrass, Italian",[14]; [21],0
same,"Plant response rating, Ryegrass, Italian",[14]; [22],0
same,"Plant response rating, Wheat",[15]; [21],0
same,"Plant response rating, Wheat",[15]; [22],0
same,"Plant response rating, Barnyardgrass",[16]; 13 to 15 d,0
same,"Plant response rating, Ducksalad",[17]; 13 to 15 d,85
same,"Plant response rating, Rice",rice (Oryra sativa); 13 to 15 d,15
same,"Plant response rating, Sedge, Umbrella",[18]; 13 to 15 d,0
O=C1NCC(c2cccc(C(F)(F)F)c2)C1C(=O)Nc1ccccc1O (centres unmarked) [Compound 1241],Kochia plant response rating,Kochia (Kochia scoparia) [1]; [23],0
same,Kochia plant response rating,Kochia (Kochia scoparia) [1]; [24],0
same,Barnyardgrass plant response rating,[2]; [23],0
same,Barnyardgrass plant response rating,[2]; [24],0
same,"Foxtail, Giant plant response rating",[3]; [23],0
same,"Foxtail, Giant plant response rating",[3]; [24],0
same,Pigweed plant response rating,[4]; [23],0
same,Pigweed plant response rating,[4]; [24],0
same,Ragweed plant response rating,[5]; [23],0
same,Ragweed plant response rating,[5]; [24],0
same,"Ryegrass, Italian plant response rating",[6]; [23],0
same,"Ryegrass, Italian plant response rating",[6]; [24],0
same,Galium plant response rating (0 to 100 scale),[7]; [25],0
same,Galium plant response rating,[7]; [26],0
same,Kochia plant response rating (0 to 100 scale),Kochia (Kochia scoparia) [8]; [25],0
same,Kochia plant response rating,Kochia (Kochia scoparia) [8]; [26],0
same,Barnyardgrass plant response rating (0 to 100 scale),[9]; [25],0
same,Barnyardgrass plant response rating,[9]; [26],30
same,Blackgrass plant response rating (0 to 100 scale),[10]; [25],0
same,Blackgrass plant response rating,[10]; [26],0
same,Corn plant response rating (0 to 100 scale),corn (Zea mays); [25],0
same,Corn plant response rating,corn (Zea mays); [26],20
same,"Foxtail, Giant plant response rating (0 to 100 scale)",[11]; [25],0
same,"Foxtail, Giant plant response rating",[11]; [26],20
same,Pigweed plant response rating (0 to 100 scale),[12]; [25],0
same,Pigweed plant response rating,[12]; [26],0
same,Ragweed plant response rating (0 to 100 scale),[13]; [25],0
same,Ragweed plant response rating,[13]; [26],0
same,"Ryegrass, Italian plant response rating (0 to 100 scale)",[14]; [25],0
same,"Ryegrass, Italian plant response rating",[14]; [26],0
same,Wheat plant response rating (0 to 100 scale),[15]; [25],0
same,Barnyardgrass plant response rating,[16],0
same,Ducksalad plant response rating,[17],0
same,Rice plant response rating,rice (Oryra sativa),0
same,"Sedge, Umbrella plant response rating",[18],0

# From patent US12077503B2, “Substituted cyclic amides and their use as herbicides” (FMC CORPORATION, priority 2015, dated 2024)
